Data as given in patent US11332459B2 (TEIJIN PHARMA LIMITED, priority 2017, dated 2022).

biological target: T1, human TRPC6 (Homo sapiens, UniProt Q9Y210); experiment: TRPC6 calcium flux assay (FLIPR, OAG-stimulated calcium influx); assay type: cell-based; conditions: HEK293 cells stably transfected with human TRPC6, read-out: hTRPC6 Potency
T1 construct: expressed in transfected cells
T1 sequence (Q9Y210 1-931): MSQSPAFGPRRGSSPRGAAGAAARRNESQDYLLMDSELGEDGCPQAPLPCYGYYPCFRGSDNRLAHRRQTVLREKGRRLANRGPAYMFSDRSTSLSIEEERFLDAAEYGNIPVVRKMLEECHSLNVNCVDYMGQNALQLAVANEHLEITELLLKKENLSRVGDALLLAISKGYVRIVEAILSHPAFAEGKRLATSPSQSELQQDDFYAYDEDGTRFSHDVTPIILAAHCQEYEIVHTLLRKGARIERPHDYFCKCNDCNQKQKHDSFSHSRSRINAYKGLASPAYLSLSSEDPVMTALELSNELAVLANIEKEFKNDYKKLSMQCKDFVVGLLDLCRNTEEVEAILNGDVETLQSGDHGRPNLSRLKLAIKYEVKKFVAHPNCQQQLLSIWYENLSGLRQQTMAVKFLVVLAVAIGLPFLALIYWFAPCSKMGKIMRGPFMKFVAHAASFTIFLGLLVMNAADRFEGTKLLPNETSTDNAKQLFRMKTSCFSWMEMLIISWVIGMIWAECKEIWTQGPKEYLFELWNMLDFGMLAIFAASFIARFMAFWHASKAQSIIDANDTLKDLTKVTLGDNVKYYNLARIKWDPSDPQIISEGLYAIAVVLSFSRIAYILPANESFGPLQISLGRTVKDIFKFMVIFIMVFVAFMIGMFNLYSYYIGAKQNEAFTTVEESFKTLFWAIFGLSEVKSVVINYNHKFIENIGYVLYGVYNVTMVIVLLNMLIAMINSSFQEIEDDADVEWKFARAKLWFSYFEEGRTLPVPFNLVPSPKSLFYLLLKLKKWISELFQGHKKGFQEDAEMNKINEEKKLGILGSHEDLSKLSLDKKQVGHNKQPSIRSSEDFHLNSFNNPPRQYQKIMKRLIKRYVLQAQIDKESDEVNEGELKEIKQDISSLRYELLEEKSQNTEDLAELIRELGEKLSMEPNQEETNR
Summary of the method: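 IC50 derived by plotting background-corrected peak fluorescence (180 s window, normalized to OAG-triggered signal vs buffer) against dose. Stable human TRPC6 HEK293 line was dye-loaded, exposed to compound 25 min, then challenged with 50 uM final OAG in 2 mM Ca2+ HEPES buffer pH 7.2, 0.5% DMSO.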

| SMILES | IC50 |
| --- | --- |
| N[C@@H]1CN(c2nc3cc(F)c(F)cc3n2CC(=O)N(C2CC2)C2CCS(=O)(=O)C2)CC[C@H]1F (stereo partly drawn) [Example 526, 2-(2-((3R,4R)-3-amino-4-fluoropiperidin-1-yl)-5,6-difluoro-1H-benzo[d]imidazol-1-yl)-N-cyclopropyl-N-(1,1-dioxidotetrahydrothiophen-3-yl)acetamide] | 2.85 µM |
| N[C@@H]1CN(c2nc3cc(F)c(F)cc3n2CC(=O)N2CCNC(=O)C2)CC[C@H]1F [Example 528, 4-(2-(2-((3R,4R)-3-amino-4-fluoropiperidin-1-yl)-5,6-difluoro-1H-benzo[d]imidazol-1-yl)acetyl)piperazin-2-one] | > 3.75 µM |
| N[C@@H]1CN(c2nc3cc(F)c(F)cc3n2CC(=O)N2CCN(C(=O)C3CC3)CC2)CC[C@H]1F [Example 531, 2-(2-((3R,4R)-3-amino-4-fluoropiperidin-1-yl)-5,6-difluoro-1H-benzo[d]imidazol-1-yl)-1-(4-(cyclopropanecarbonyl)piperazin-1-yl)ethan-1-one] | > 3.75 µM |
| CN(C(=O)Cn1c(N2CC[C@@H](F)[C@H](N)C2)nc2cc(F)c(F)cc21)C(C)(C)C#N [Example 533, 2-(2-((3R,4R)-3-amino-4-fluoropiperidin-1-yl)-5,6-difluoro-1H-benzo[d]imidazol-1-yl)-N-(2-cyanopropan-2-yl)-N-methylacetamide] | > 3.75 µM |
| N[C@@H]1CN(c2nc3cc(F)c(F)cc3n2CC(=O)N2CCC(C(=O)N3CCCCC3)CC2)CC[C@H]1F [Example 536, 2-(2-((3R,4R)-3-amino-4-fluoropiperidin-1-yl)-5,6-difluoro-1H-benzo[d]imidazol-1-yl)-1-(4-(piperidine-1-carbonyl)piperidin-1-yl)ethan-1-one] | > 3.75 µM |
| COCCN(C(=O)Cn1c(N2CC[C@@H](F)[C@H](N)C2)nc2cc(F)c(F)cc21)C1CCS(=O)(=O)C1 (stereo partly drawn) [Example 538, 2-(2-((3R,4R)-3-amino-4-fluoropiperidin-1-yl)-5,6-difluoro-1H-benzo[d]imidazol-1-yl)-N-(1,1-dioxidotetrahydrothiophen-3-yl)-N-(2-methoxyethyl)acetamide] | > 3.75 µM |
| CC1CCCN(C(=O)C2CCN(C(=O)Cn3c(N4CC[C@@H](F)[C@H](N)C4)nc4cc(F)c(F)cc43)CC2)C1 (stereo partly drawn) [Example 539, 2-(2-((3R,4R)-3-amino-4-fluoropiperidin-1-yl)-5,6-difluoro-1H-benzo[d]imidazol-1-yl)-1-(4-(3-methylpiperidine-1-carbonyl)piperidin-1-yl)ethan-1-one] | > 3.75 µM |
| N[C@@H]1CN(c2nc3cc(F)c(F)cc3n2CC(=O)N(CC2CCCO2)C2CCS(=O)(=O)C2)CC[C@H]1F (stereo partly drawn) [Example 541, 2-(2-((3R,4R)-3-amino-4-fluoropiperidin-1-yl)-5,6-difluoro-1H-benzo[d]imidazol-1-yl)-N-(1,1-dioxidotetrahydrothiophen-3-yl)-N-((tetrahydrofuran-2-yl)methyl)acetamide] | > 3.75 µM |
| CC(C)N(C)C(=O)C1CCN(C(=O)Cn2c(N3CC[C@@H](F)[C@H](N)C3)nc3cc(F)c(F)cc32)CC1 [Example 542, 1-(2-(2-((3R,4R)-3-amino-4-fluoropiperidin-1-yl)-5,6-difluoro-1H-benzo[d]imidazol-1-yl)acetyl)-N-isopropyl-N-methylpiperidine-4-carboxamide] | > 3.75 µM |
| COc1cc(F)cc2nc(N3CC[C@@H](F)[C@H](N)C3)n(CC(=O)N3CCOCC3)c12 [Example 546, 2-(2-((3R,4R)-3-amino-4-fluoropiperidin-1-yl)-5-fluoro-7-methoxy-1H-benzo[d]imidazol-1-yl)-1-morpholinoethan-1-one] | > 3.75 µM |
| N[C@@H]1CN(c2nc3cc(F)c(F)cc3n2[C@H]2CCN(C3CC3)C2=O)CC[C@H]1F [Example 549, (S)-3-(2-((3R,4R)-3-amino-4-fluoropiperidin-1-yl)-5,6-difluoro-1H-benzo[d]imidazol-1-yl)-1-cyclopropylpyrrolidin-2-one] | 0.41 µM |
| N[C@@H]1CN(c2nc3cc(F)c(F)cc3n2[C@@H]2CCN(C3CCOCC3)C2=O)CC[C@H]1F [Example 550, (R)-3-(2-((3R,4R)-3-amino-4-fluoropiperidin-1-yl)-5,6-difluoro-1H-benzo[d]imidazol-1-yl)-1-(tetrahydro-2H-pyran-4-yl)pyrrolidin-2-one] | > 3.75 µM |
| Cc1cnc(Cn2c(N3CC[C@@H](F)[C@H](N)C3)nc3cc(F)c(F)cc32)s1 [Example 551, (3R,4R)-1-(5,6-difluoro-1-((5-methylthiazol-2-yl)methyl)-1H-benzo[d]imidazol-2-yl)-4-fluoropiperidin-3-amine] | 0.0061 µM |
| Cc1nnc(Cn2c(N3CC[C@@H](F)[C@H](N)C3)nc3cc(F)c(F)cc32)s1 [Example 553, (3R,4R)-1-(5,6-difluoro-1-((5-methyl-1,3,4-thiadiazol-2-yl)methyl)-1H-benzo[d]imidazol-2-yl)-4-fluoropiperidin-3-amine] | 0.00669 µM |

Further lines, results first:

| IC50 | SMILES |
| --- | --- |
| > 1.75 µM | N[C@@H]1CN(c2nc3cc(F)c(F)cc3n2CC(=O)N2CCC(C(=O)N3CCCC3)CC2)CC[C@H]1F [Example 529, 2-(2-((3R,4R)-3-amino-4-fluoropiperidin-1-yl)-5,6-difluoro-1H-benzo[d]imidazol-1-yl)-1-(4-(pyrrolidine-1-carbonyl)piperidin-1-yl)ethan-1-one] |
| > 3.75 µM | NC(=O)C1CCN(C(=O)Cn2c(N3CC[C@@H](F)[C@H](N)C3)nc3cc(F)c(F)cc32)CC1 [Example 532, 1-(2-(2-((3R,4R)-3-amino-4-fluoropiperidin-1-yl)-5,6-difluoro-1H-benzo[d]imidazol-1-yl)acetyl)piperidine-4-carbaxamide] |
| > 3.75 µM | CNC(=O)C1CCN(C(=O)Cn2c(N3CC[C@@H](F)[C@H](N)C3)nc3cc(F)c(F)cc32)CC1 [Example 534, 1-(2-(2-((3R,4R)-3-amino-4-fluoropiperidin-1-yl)-5,6-difluoro-1H-benzo[d]imidazol-1-yl)acetyl)-N-methylpiperidine-4-carboxamide] |
| > 3.75 µM | CC(=O)NC1CCCN(C(=O)Cn2c(N3CC[C@@H](F)[C@H](N)C3)nc3cc(F)c(F)cc32)C1 (stereo partly drawn) [Example 535, N-(1-(2-(2-((3R,4R)-3-amino-4-fluoropiperidin-1-yl)-5,6-difluoro-1H-benzo[d]imidazol-1-yl)acetyl)piperidin-3-yl)acetamide] |
| > 1.75 µM | N[C@@H]1CN(c2nc3cc(F)c(F)cc3n2CC(=O)N2CCC(C(=O)N3CCCCCC3)CC2)CC[C@H]1F [Example 537, 2-(2-((3R,4R)-3-amino-4-fluoropiperidin-1-yl)-5,6-difluoro-1H-benzo[d]imidazol-1-yl)-1-(4-(azepane-1-carbonyl)piperidin-1-yl)ethan-1-one] |
| > 3.75 µM | CC(=O)N1CCN(C(=O)Cn2c(N3CC[C@@H](F)[C@H](N)C3)nc3cc(F)c(F)cc32)CC1 [Example 540, 1-(4-acetylpiperazin-1-yl)-2-(2-((3R,4R)-3-amino-4-fluoropiperidin-1-yl)-5,6-difluoro-1H-benzo[d]imidazol-1-yl)ethan-1-one] |
| > 3.75 µM | COc1cc(F)cc2nc(N3CC[C@@H](F)[C@H](N)C3)n(CC(=O)N(C)CC(F)(F)F)c12 [Example 544, 2-(2-((3R,4R)-3-amino-4-fluoropiperidin-1-yl)-5-fluoro-7-methoxy-1H-benzo[d]imidazol-1-yl)-N-methyl-N-(2,2,2-trifluoroethyl)acetamide] |
| > 3.75 µM | COc1cc(F)cc2c1nc(N1CC[C@@H](F)[C@H](N)C1)n2CC(=O)N1CCOCC1 [Example 545, 2-(2-((3R,4R)-3-amino-4-fluoropiperidin-1-yl)-6-fluoro-4-methoxy-1H-benzo[d]imidazol-1-yl)-1-morpholinoethan-1-one] |
| 0.0437 µM | N[C@@H]1CN(c2nc3cc(F)c(F)cc3n2[C@@H]2CCN(C3CC3)C2=O)CC[C@H]1F [Example 547, (R)-3-(2-((3R,4R)-3-amino-4-fluoropiperidin-1-yl)-5,6-difluoro-1H-benzo[d]imidazol-1-yl)-1-cyclopropylpyrrolidin-2-one] |
| 0.382 µM | N[C@@H]1CN(c2nc3cc(F)c(F)cc3n2[C@H]2CCN(C3CCOCC3)C2=O)CC[C@H]1F [Example 548, (S)-3-(2-((3R,4R)-3-amino-4-fluoropiperidin-1-yl)-5,6-difluoro-1H-benzo[d]imidazol-1-yl)-1-(tetrahydro-2H-pyran-4-yl)pyrrolidin-2-one] |
| 0.00651 µM | Cc1nnc(Cn2c(N3CC[C@@H](F)[C@H](N)C3)nc3c(F)cc(F)cc32)s1 [Example 552, (3R,4R)-1-(4,6-difluoro-1-((5-methyl-1,3,4-thiadiazol-2-yl)methyl)-1H-benzo[d]imidazol-2-yl)-4-fluoropiperidin-3-amine] |
